The target in test [1] is T1, recombinant human p38α MAPK (Homo sapiens, UniProt Q16539).
T1 construct: purchased UBI 14-251; host or cells: E. coli
The experiment in a line: Human p38α MAP kinase inhibition assay (cell-free). The format is biochemical. To be noted: MBP substrate, 100 μM ATP. Here is the method:
(§1) The biological activities of compounds of the present invention were measured in assays which include: • 1) Inhibition of rat liver HMG-CoA reductase. Further details on the assay are present in Heller, R. A.; Gould, R. G. Biochem. Biophys. Research Commun. 1973, 50, 859 and Kubo, M.; Strott, C. A.; Endocrinology 1987, 120, 214. • 2) Inhibition of recombinant human p38αMAPK • 3) Inhibition of lipopolysaccharide (LPS)-stimulated release of tumor necrosis factor alpha (TNFα) from human peripheral blood mononuclear cells (PBMC).
Human p38αMAP Kinase Inhibition Assay: In vitro cell-free p38αMAP kinase inhibition assays were conducted by the method as described in Clerk et al., FEBS Lett., 426:93-96 (1998) for a number of lactones in formulas I/IIa/IIb. Briefly, human recombinant p38α protein kinase expressed in E. coli (UBI #14-251) was used. Myelin basic protein (MBP, UBI #13-110) was employed as substrate, and microtiter plate wells were coated with MBP (0.01 mg/ml) overnight at 4° C. Candidate compound and/or vehicle was preincubated with 0.075 μg/mL enzyme in modified HEPES buffer pH 7.4 at 25° C. for 15 minutes. The reaction was initiated by addition of 100 μM ATP and allowed to proceed for another 60 minutes. The reaction was terminated by aspirating the solution. Phosphorylated MBP was detected by incubation with a mouse monoclonal IgG2a anti-phosphoMBP antibody. Bound anti-phosphoMBP antibody was quantitated by incubation with a HRP conjugated goat anti-mouse IgG. The protein kinase activity was proportional to the readings of optical density at 405 nm resulting from reaction with an ABTS Microwell Peroxidase Substrate System.

For test [2], the target named is T2, rat liver hydroxymethylglutaryl-CoA reductase (Rattus norvegicus, UniProt P51639).
T2 sequence (P51639 1-887): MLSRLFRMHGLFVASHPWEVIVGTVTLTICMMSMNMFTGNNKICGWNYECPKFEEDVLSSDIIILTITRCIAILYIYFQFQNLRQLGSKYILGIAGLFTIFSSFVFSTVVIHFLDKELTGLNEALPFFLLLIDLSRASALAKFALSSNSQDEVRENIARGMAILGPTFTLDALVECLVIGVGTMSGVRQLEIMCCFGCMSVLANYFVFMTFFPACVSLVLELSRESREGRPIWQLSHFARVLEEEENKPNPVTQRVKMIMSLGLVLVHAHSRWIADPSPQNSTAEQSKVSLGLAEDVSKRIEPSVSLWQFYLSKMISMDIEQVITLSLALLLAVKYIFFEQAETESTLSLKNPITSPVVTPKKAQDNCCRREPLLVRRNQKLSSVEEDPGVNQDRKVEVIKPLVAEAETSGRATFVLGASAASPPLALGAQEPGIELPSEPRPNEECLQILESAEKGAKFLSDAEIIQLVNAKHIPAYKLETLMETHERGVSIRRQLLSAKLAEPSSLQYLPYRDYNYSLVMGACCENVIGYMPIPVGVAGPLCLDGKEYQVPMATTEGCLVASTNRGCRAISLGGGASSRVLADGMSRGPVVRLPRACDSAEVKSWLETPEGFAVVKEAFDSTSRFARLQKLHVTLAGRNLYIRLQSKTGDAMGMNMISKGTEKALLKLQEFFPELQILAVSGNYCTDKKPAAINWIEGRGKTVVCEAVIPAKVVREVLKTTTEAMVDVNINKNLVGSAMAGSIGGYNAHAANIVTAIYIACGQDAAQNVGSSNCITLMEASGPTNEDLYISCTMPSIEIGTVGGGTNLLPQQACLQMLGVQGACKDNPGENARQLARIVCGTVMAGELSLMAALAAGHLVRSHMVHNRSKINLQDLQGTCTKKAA
Briefly: Inhibition of rat liver HMG-CoA reductase. Format: biochemical. As to conditions: rat liver HMG-CoA reductase activity inhibited by 50%; read-out: HMG-CoA R IC50. Here is the method: as §1

Test [3] deals with lipopolysaccharide-stimulated release of TNFα from human peripheral blood mononuclear cells (PBMC). Briefly: Whole cell LPS-stimulated TNF-α release assay. Format: cell-based. To be noted: read-out: TNFα Release IC50. The procedure: as §1
Whole Cell LPS-Stimulated TNF-α Release Assay: The procedure as described in Welker et al., Int. Arch. Allergy and Immunol. 109:110-115 (1996) was followed. Briefly, a candidate compound and/or vehicle was preincubated with human peripheral blood mononuclear leukocytes (PBML, 5×10^5/ml) cells in AIM-V medium pH 7.4 for 2 hours. Lipopolysaccharide (LPS, 25 ng/ml) was added to stimulate the cells, which was incubated overnight at 37° C. TNF-α cytokine levels in the conditioned medium was then quantitated using a sandwich ELISA kit.

Counter-ions that a name gives are not always drawn. Like-named read-outs stand apart in the source and are kept apart here.

T1 sequence (Q16539 whole entry): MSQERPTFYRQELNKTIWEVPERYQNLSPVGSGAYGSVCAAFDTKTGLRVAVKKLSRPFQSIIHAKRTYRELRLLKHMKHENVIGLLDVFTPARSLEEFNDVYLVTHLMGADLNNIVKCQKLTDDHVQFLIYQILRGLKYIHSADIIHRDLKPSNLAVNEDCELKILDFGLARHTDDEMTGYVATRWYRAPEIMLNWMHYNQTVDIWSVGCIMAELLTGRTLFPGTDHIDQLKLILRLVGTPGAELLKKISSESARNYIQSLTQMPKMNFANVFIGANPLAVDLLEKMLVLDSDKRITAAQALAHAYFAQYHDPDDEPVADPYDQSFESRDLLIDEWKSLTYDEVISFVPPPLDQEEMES

As for `O=C(O)C[C@H](O)C[C@H](O)CCn1c(-c2ccccc2)nc(-c2ccc(F)cc2)c1-c1ccncn1` [Example 39, (3R,5R)-7-(4-(4-fluorophenyl)-2-phenyl-5-(pyrimidin-4-yl)-1H-imidazol-1-yl)-3,5-dihydroxyheptanoic acid calcium salt], the IC50 in test [1] is 14000 nM; in test [2], above 1000 nM; in test [3] (Homo sapiens, PBMC) it was above 300 µM.
Turning to `O=C1C[C@H](O)C[C@@H](CCn2c(-c3ccccc3)nc(-c3ccc(F)cc3)c2-c2ccncn2)O1` [Example 40, (4R,6R)-6-(2-(4-(4-fluorophenyl)-2-phenyl-5-(pyrimidin-4-yl)-1H-imidazol-1-yl)ethyl)-4-hydroxytetrahydro-2H-pyran-2-one], the IC50 in test [1] turned out to be 1400 nM; in test [3] (LPS-stimulated human PBMC) it was 26 µM.
Consider `CC(C)c1nc(-c2ccc(F)cc2)c(-c2ccnc(Nc3ccccc3)n2)n1CC[C@@H]1C[C@@H](O)CC(=O)O1` [Example 24, (4R,6R)-6-(2-(4-(4-fluorophenyl)-2-isopropyl-5-(2-(phenylamino)pyrimidin-4-yl)-1H-imidazol-1-yl)ethyl)-4-hydroxytetrahydro-2H-pyran-2-one], for which the values for the IC50 in test [1] and in test [3] (LPS-stimulated human PBMC) were 110 nM and below 3 µM, respectively.
As to `CC(C)(C)c1nc(-c2ccc(F)cc2)c(-c2ccncc2)n1/C=C/[C@@H]1C[C@@H](O)CC(=O)O1` (racemic) [Example 34, (4R,6S) and (4S,6R)-6-((E)-2-(2-tert-butyl-4-(4-fluorophenyl)-5-(pyridin-4-yl)-1H-imidazol-1-yl)vinyl)-4-hydroxytetrahydro-2H-pyran-2-one], the IC50 is 1800 nM in test [1] and 190 µM in test [3] (LPS-stimulated human PBMC).
`CC(C)c1nc(-c2ccc(F)cc2)c(-c2ccnc(Nc3ccccc3)n2)n1/C=C/[C@@H](O)C[C@@H](O)CC(=O)O` (racemic) [Example 28, (3R,5S,E) and (3S,5R,E)-7-(4-(4-fluorophenyl)-2-isopropyl-5-(2-(phenylamino)pyrimidin-4-yl)-1H-imidazol-1-yl)-3,5-dihydroxyhept-6-enoic acid sodium salt]: the results for the IC50 in test [1], in test [2] and in test [3] (LPS-stimulated human PBMC) were 270 nM, 4.8 nM and 9.7 µM, respectively.
Turning to `CC(C)c1nc(-c2ccc(F)cc2)c(-c2ccnc(Nc3ccccc3)n2)n1/C=C/[C@@H]1C[C@@H](O)CC(=O)O1` (racemic) [Example 29, (4R,6S) and (4S,6R)-6-((E)-2-(4-(4-fluorophenyl)-2-isopropyl-5-(2-(phenylamino)pyrimidin-4-yl)-1H-imidazol-1-yl)vinyl)-4-hydroxytetrahydro-2H-pyran-2-one], the results for the IC50 in test [1] and in test [3] (LPS-stimulated human PBMC) were below 100 nM and 19 µM, respectively.
With `CC(C)(C)c1nc(-c2ccc(F)cc2)c(-c2ccncc2)n1/C=C/[C@@H](O)C[C@@H](O)CC(=O)O` (racemic) [Example 33, (3R,5S,E) and (3S,5R,E)-7-(2-tert-butyl-4-(4-fluorophenyl)-5-(pyridin-4-yl)-1H-imidazol-1-yl)-3,5-dihydroxyhept-6-enoic acid sodium salt], the IC50 in test [1] came out at 6000 nM; in test [2] it was 11 nM; in test [3] (LPS-stimulated human PBMC) it was 230 µM.
For the molecule `CC(C)c1nc(-c2ccc(F)cc2)c(-c2ccnc(Nc3ccccc3)n2)n1CC[C@@H](O)C[C@@H](O)CC(=O)O` [Example 25, (3R,5R)-7-(4-(4-fluorophenyl)-2-isopropyl-5-(2-(phenylamino)pyrimidin-4-yl)-1H-imidazol-1-yl)-3,5-dihydroxyheptanoic acid sodium salt], the IC50 in test [1] is below 100 nM; in test [2], 98 nM; in test [3] (LPS-stimulated human PBMC), 9.7 µM.
